Experimental findings from PubChem BioAssay (NCI) are described below.

Some test systems named below: NCI-H460 lung; UO-31 renal; DMS 273 small cell lung; MOLT-4 leukemia; XF 498 CNS; M19-MEL melanoma; KM20L2 colon; SNB-78 CNS; DLD-1 colon; LXFL 529 NSCLC; DMS 114 small cell lung; NCI/ADR-RES ovarian; RXF-631 renal; HOP-18 NSCLC.
What all share (assay): growth of human tumour cells (NCI), 48 h

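96-well plates; 48 h exposure; 5 concentrations. Endpoints by linear interpolation between flanking doses. Not reached: highest tested concentration assigned. TGI is the concentration that stops growth completely.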

As to `CCOC(=O)CSc1nnc(CSc2nc(-c3ccccc3)c(-c3ccccc3)[nH]2)n1-c1ccccc1`, the TGI in the assay on NCI-H460 lung was greater than 100 µM; with UO-31 renal it was 38.9 µM; with DMS 273 small cell lung it was greater than 100 µM; with MOLT-4 leukemia, greater than 93.8 µM; in the assay with XF 498 CNS it was 46.3 µM; in the assay with M19-MEL melanoma it was greater than 100 µM. Moreover, the TGI in the assay on KM20L2 colon was 59.2 µM; with SNB-78 CNS it was 68.5 µM; with DLD-1 colon it was greater than 100 µM; with LXFL 529 NSCLC, 42.4 µM; in the assay on DMS 114 small cell lung, 39.8 µM; in the assay on NCI/ADR-RES ovarian, greater than 100 µM.

Consider `CCC12CCCNC1c1c(n(C)c3ccccc13)C(C(=O)OC)C2` (stereo not drawn), for which the TGI was greater than 275 µM in the assay with NCI-H460 lung; 246 µM in the assay with DMS 273 small cell lung; greater than 275 µM with MOLT-4 leukemia; 123 µM in the assay with XF 498 CNS; 194 µM in the assay with M19-MEL melanoma; 231 µM in the assay on KM20L2 colon. The TGI with DLD-1 colon is greater than 275 µM; in the assay on LXFL 529 NSCLC it was greater than 275 µM; in the assay on DMS 114 small cell lung, 152 µM.

Regarding `Cc1ccc2c(c1)C1(OC(=O)c3ccccc31)c1ccc(F)cc1O2` (stereo not drawn), the TGI in the assay with UO-31 renal was 75.8 µM; with MOLT-4 leukemia it was 54.9 µM; in the assay on RXF-631 renal it was greater than 100 µM; in the assay with XF 498 CNS it was greater than 100 µM; in the assay with M19-MEL melanoma, greater than 100 µM; with KM20L2 colon it was greater than 100 µM. Moreover, the TGI in the assay on DLD-1 colon, with LXFL 529 NSCLC, with HOP-18 NSCLC and with DMS 114 small cell lung was greater than 100 µM in each case.

Consider `CC(Oc1ccc(OCC2CCCCC2)cc1)C(=O)NCCO` (stereo not drawn), for which the TGI with NCI-H460 lung, in the assay with UO-31 renal, in the assay with DMS 273 small cell lung, in the assay with MOLT-4 leukemia, with M19-MEL melanoma and with SNB-78 CNS was greater than 100 µM each time. Moreover, the TGI with DLD-1 colon, with LXFL 529 NSCLC, in the assay on HOP-18 NSCLC and with DMS 114 small cell lung was greater than 100 µM throughout.

As to `Cc1ccc(S(=O)(=O)N2c3ccccc3[C@H]3CCC=C[C@H]32)cc1`, the TGI was greater than 64.7 µM with NCI-H460 lung; 34.9 µM in the assay on UO-31 renal; 18.9 µM in the assay with DMS 273 small cell lung; greater than 73.8 µM with MOLT-4 leukemia; greater than 100 µM with RXF-631 renal; 73.7 µM with XF 498 CNS. The TGI in the assay on M19-MEL melanoma was 37.8 µM; in the assay on KM20L2 colon, 10.3 µM; in the assay with SNB-78 CNS it was greater than 85.7 µM; in the assay with DLD-1 colon it was greater than 100 µM; with LXFL 529 NSCLC it was greater than 93.9 µM; in the assay with HOP-18 NSCLC it was greater than 100 µM. Moreover, the TGI in the assay with DMS 114 small cell lung is 15.1 µM.

For `Cc1cc2oc(-c3ccccc3)c(C)c(=O)c2c2c1OC(C)(C)S2`, the TGI in the assay with NCI-H460 lung, with UO-31 renal, in the assay on DMS 273 small cell lung, with MOLT-4 leukemia, with RXF-631 renal and in the assay with XF 498 CNS was greater than 100 µM in each case. The TGI with M19-MEL melanoma, with KM20L2 colon, with DLD-1 colon, with LXFL 529 NSCLC, in the assay on HOP-18 NSCLC and in the assay with DMS 114 small cell lung was greater than 100 µM throughout.

As to `Cc1cc(C)n2c(-c3ccccc3)c(C)cc2n1`, the TGI in the assay on NCI-H460 lung, in the assay on UO-31 renal, in the assay on DMS 273 small cell lung, in the assay with RXF-631 renal, with M19-MEL melanoma and in the assay on KM20L2 colon was greater than 100 µM each time. The TGI in the assay on SNB-78 CNS, in the assay on DLD-1 colon, in the assay with HOP-18 NSCLC and in the assay with DMS 114 small cell lung was greater than 100 µM throughout.

For `N=C(N)SCc1cc(Cl)cc(Cl)c1O`, the TGI with NCI-H460 lung was found to be 36.2 µM; in the assay with UO-31 renal, 32.4 µM; in the assay with MOLT-4 leukemia, 50.8 µM; in the assay on NCI/ADR-RES ovarian, 89.3 µM.

On to `O=C(COc1ccc(OCC(=O)NNC2=NC(c3cc(F)c(Cl)cc3Cl)CS2)c(Cl)c1)NNC1=NC(c2cc(F)c(Cl)cc2Cl)CS1` (stereo not drawn), for which the TGI in the assay on NCI-H460 lung, in the assay on UO-31 renal, in the assay with MOLT-4 leukemia and in the assay on NCI/ADR-RES ovarian was greater than 100 µM each time.

In the case of `COc1ccc(N2C(=O)c3c(c4[nH]c5ccc(OC)cc5c4c4ccc(C(C)(C)C)cc34)C2=O)cc1`, the TGI in the assay on NCI-H460 lung, with UO-31 renal, in the assay on DMS 273 small cell lung, in the assay with MOLT-4 leukemia, in the assay with XF 498 CNS and in the assay with M19-MEL melanoma was greater than 100 µM in each case. The TGI with SNB-78 CNS, in the assay with DLD-1 colon, with LXFL 529 NSCLC, in the assay with HOP-18 NSCLC and in the assay on DMS 114 small cell lung was greater than 100 µM throughout.

For `C[C@H](NC(=O)n1c2ccccc2c2ccccc21)C(=O)O`, the TGI with NCI-H460 lung, in the assay with DMS 273 small cell lung, in the assay on MOLT-4 leukemia, in the assay with RXF-631 renal, in the assay on M19-MEL melanoma and with KM20L2 colon was greater than 100 µM each time. For the same compound, the TGI in the assay with DLD-1 colon, in the assay with LXFL 529 NSCLC, in the assay on HOP-18 NSCLC and in the assay on DMS 114 small cell lung was greater than 100 µM in each case.

Regarding `O=c1c(C2=NCCC2)c(-c2ccc[nH]2)[nH]n1-c1ccccc1`, the TGI in the assay on NCI-H460 lung, in the assay on UO-31 renal, with MOLT-4 leukemia and in the assay on NCI/ADR-RES ovarian was greater than 100 µM throughout.

As for `CCOC(=O)C(=[N+]=[N-])C(=O)CN1C(=O)C2CC(C)=C(C)CC2C1O` (stereo not drawn), the TGI with NCI-H460 lung, in the assay on UO-31 renal, in the assay on MOLT-4 leukemia and with NCI/ADR-RES ovarian was greater than 100 µM each time.

With `Cc1ccc2c(c1)C1C(CO2)C(c2ccccc2)=NN1c1ccccc1` (stereo not drawn), the TGI in the assay on NCI-H460 lung, in the assay on UO-31 renal, in the assay with DMS 273 small cell lung, in the assay on MOLT-4 leukemia, in the assay with M19-MEL melanoma and in the assay on KM20L2 colon was greater than 100 µM in each case. Also, the TGI in the assay with SNB-78 CNS, in the assay with DLD-1 colon, in the assay with LXFL 529 NSCLC, in the assay on HOP-18 NSCLC and in the assay with DMS 114 small cell lung was greater than 100 µM each time.

Consider `COC(=O)C1(C(=O)OC)N=C(C)OC1c1ccccn1` (stereo not drawn), for which the TGI with NCI-H460 lung, in the assay on UO-31 renal, with MOLT-4 leukemia and in the assay on NCI/ADR-RES ovarian was greater than 100 µM each time.

For the compound `COC(=O)C1=CC2CC1C(S(=O)(=O)c1ccccc1)C2S(=O)(=O)c1ccccc1` (stereo not drawn), the TGI with NCI-H460 lung was found to be 51.5 µM; in the assay with UO-31 renal, 27.7 µM; in the assay on DMS 273 small cell lung it was 23.4 µM; in the assay with MOLT-4 leukemia it was 19.6 µM; in the assay with RXF-631 renal it was 26.9 µM; in the assay with M19-MEL melanoma it was 42.2 µM. The TGI is 33.2 µM in the assay on KM20L2 colon; 29.8 µM in the assay on DLD-1 colon; 18.6 µM in the assay with LXFL 529 NSCLC; 30.5 µM in the assay on HOP-18 NSCLC; 36 µM in the assay on DMS 114 small cell lung.

Regarding `O=C(O)CCNC(=O)c1cc(N(CCBr)CCBr)c([N+](=O)[O-])cc1[N+](=O)[O-]`, the TGI in the assay on NCI-H460 lung, in the assay on UO-31 renal, in the assay on MOLT-4 leukemia and in the assay on NCI/ADR-RES ovarian was greater than 100 µM each time.

For the compound `O=C(CC(C(=O)c1cccs1)c1cccs1)c1ccccc1Cl` (stereo not drawn), the TGI in the assay on NCI-H460 lung, in the assay with UO-31 renal, with MOLT-4 leukemia and in the assay with NCI/ADR-RES ovarian was greater than 100 µM each time.

With `CCCCCCCNC(P(=O)(O)O)P(=O)(O)O`, the TGI with NCI-H460 lung, with UO-31 renal, with MOLT-4 leukemia and in the assay with NCI/ADR-RES ovarian was greater than 100 µM each time.

As for `CCOC(=O)/C(N=Nc1ccc(-n2c(C)nc3ccc(Br)cc3c2=O)cc1)=C(/C)O`, the TGI with NCI-H460 lung, with UO-31 renal, in the assay with MOLT-4 leukemia and in the assay on NCI/ADR-RES ovarian was greater than 100 µM each time.

For the compound `Cc1cc(=O)[nH]c2cc(NC(=O)C(CCCN=C(N)N)NC(=O)OCc3ccccc3)ccc12` (stereo not drawn), the TGI with NCI-H460 lung, in the assay on UO-31 renal, in the assay with MOLT-4 leukemia and in the assay on NCI/ADR-RES ovarian was greater than 100 µM throughout.

`C/C(=N\NS(=O)(=O)c1ccc(C)cc1)c1cc2ccccc2n1C`: the TGI in the assay on NCI-H460 lung, with UO-31 renal, with DMS 273 small cell lung, with MOLT-4 leukemia, in the assay with M19-MEL melanoma and in the assay with KM20L2 colon was greater than 100 µM throughout. The TGI in the assay on DLD-1 colon, with LXFL 529 NSCLC and in the assay with DMS 114 small cell lung was greater than 100 µM throughout.

Regarding `CC(=O)OC1CC2(C)OC(Cc3ccccc32)O1` (stereo not drawn), the TGI in the assay on NCI-H460 lung, in the assay on UO-31 renal, with DMS 273 small cell lung, with MOLT-4 leukemia, in the assay with XF 498 CNS and in the assay with M19-MEL melanoma was greater than 100 µM each time. In addition, the TGI in the assay on KM20L2 colon, in the assay with SNB-78 CNS, in the assay with DLD-1 colon, in the assay with HOP-18 NSCLC and with DMS 114 small cell lung was greater than 100 µM throughout.

For `NC(=O)C(=CNC(=S)Nc1ccc(Cl)c(Cl)c1)C(N)=O`, the TGI was greater than 100 µM in the assay on NCI-H460 lung, greater than 73.6 µM in the assay with UO-31 renal, greater than 100 µM with MOLT-4 leukemia and greater than 100 µM in the assay with NCI/ADR-RES ovarian.

Consider `c1cnc2c(c1)-n1cccc1C1(CCSC1)NN2` (stereo not drawn), for which the TGI in the assay with NCI-H460 lung, in the assay on UO-31 renal, with DMS 273 small cell lung, in the assay with MOLT-4 leukemia, in the assay on XF 498 CNS and in the assay on M19-MEL melanoma was greater than 100 µM in each case. The TGI with SNB-78 CNS, in the assay with DLD-1 colon, with HOP-18 NSCLC and with DMS 114 small cell lung was greater than 100 µM in each case.
